Results reported in PubChem BioAssay (NCI).
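GI50 = concentration required for 50% inhibition of growth. The concentration for full growth arrest is given as TGI.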

Assays:
Test in all cases: DTP human tumour cell line panel, 384-well format; in the data active means GI50 below about 0.43 µM; inactive means the rest
786-0 renal = system: 786-0 renal
A498 renal = system: A498 renal
A549 NSCLC = system: A549 NSCLC
ACHN renal = system: ACHN renal
BT-549 breast = system: BT-549 breast
CAKI-1 renal = system: CAKI-1 renal
COLO 205 colon = system: COLO 205 colon
DU-145 prostate = system: DU-145 prostate
HCC-2998 colon = system: HCC-2998 colon
HCT-116 colon = system: HCT-116 colon
HCT-15 colon = system: HCT-15 colon
HL-60(TB) leukemia = system: HL-60(TB) leukemia
HOP-62 NSCLC = system: HOP-62 NSCLC
HOP-92 NSCLC = system: HOP-92 NSCLC
HT29 colon = system: HT29 colon
IGROV1 ovarian = system: IGROV1 ovarian
KM12 colon = system: KM12 colon
LOX IMVI melanoma = system: LOX IMVI melanoma
M14 melanoma = system: M14 melanoma
MALME-3M melanoma = system: MALME-3M melanoma
MCF7 breast = system: MCF7 breast
MDA-MB-231 breast = system: MDA-MB-231 breast
MDA-MB-435 melanoma = system: MDA-MB-435 melanoma
MDA-MB-468 breast = system: MDA-MB-468 breast
NCI-H226 lung = system: NCI-H226 lung
NCI-H23 lung = system: NCI-H23 lung
NCI-H322M lung = system: NCI-H322M lung
NCI-H460 NSCLC = system: NCI-H460 NSCLC
NCI-H522 lung = system: NCI-H522 lung
NCI/ADR-RES ovarian = system: NCI/ADR-RES ovarian
OVCAR-3 ovarian = system: OVCAR-3 ovarian
OVCAR-4 ovarian = system: OVCAR-4 ovarian
OVCAR-5 ovarian = system: OVCAR-5 ovarian
OVCAR-8 ovarian = system: OVCAR-8 ovarian
PC-3 prostate = system: PC-3 prostate
RPMI-8226 leukemia = system: RPMI-8226 leukemia
RXF 393 renal = system: RXF 393 renal
SF-268 CNS = system: SF-268 CNS
SF-295 CNS = system: SF-295 CNS
SF-539 CNS = system: SF-539 CNS
SK-MEL-2 melanoma = system: SK-MEL-2 melanoma
SK-MEL-28 melanoma = system: SK-MEL-28 melanoma
SK-MEL-5 melanoma = system: SK-MEL-5 melanoma
SK-OV-3 ovarian = system: SK-OV-3 ovarian
SN12C renal = system: SN12C renal
SNB-19 CNS = system: SNB-19 CNS
SR leukemia = system: SR leukemia
T-47D breast = system: T-47D breast
TK-10 renal = system: TK-10 renal
U251 glioblastoma = system: U251 glioblastoma
UACC-257 melanoma = system: UACC-257 melanoma
UACC-62 melanoma = system: UACC-62 melanoma
UO-31 renal = system: UO-31 renal

Cc1cccc2c1NC(=O)[C@@H](NC(=O)[C@H](CCC(F)(F)F)[C@H](CCC(F)(F)F)C(N)=O)N=C2c1cccc(F)c1
3.05 µM: TGI (HL-60(TB) leukemia)
41.3 µM: TGI (SF-268 CNS)
26.8 µM: TGI (CAKI-1 renal)
64.5 µM: TGI (ACHN renal)
75.1 µM: TGI (NCI-H226 lung)
62.5 µM: TGI (OVCAR-8 ovarian)
92 µM: TGI (MDA-MB-468 breast)
22.9 µM: TGI (RXF 393 renal)
49.6 µM: TGI (HOP-62 NSCLC) | TGI (HOP-92 NSCLC)
92.6 µM: TGI (MDA-MB-231 breast)
48.3 µM: TGI (BT-549 breast)
55 µM: TGI (UACC-257 melanoma)
2.54 µM: TGI (SR leukemia)
> 100 µM: TGI (786-0 renal) | TGI (A549 NSCLC) | TGI (COLO 205 colon) | TGI (DU-145 prostate) | TGI (HCC-2998 colon) | TGI (HCT-116 colon) | TGI (HCT-15 colon) | TGI (HT29 colon) | TGI (IGROV1 ovarian) | TGI (KM12 colon) | TGI (LOX IMVI melanoma) | TGI (M14 melanoma) | TGI (MCF7 breast) | TGI (MDA-MB-435 melanoma) | TGI (NCI-H322M lung) | TGI (NCI-H460 NSCLC) | TGI (NCI/ADR-RES ovarian) | TGI (OVCAR-3 ovarian) | TGI (OVCAR-5 ovarian) | TGI (PC-3 prostate) | TGI (RPMI-8226 leukemia) | TGI (SK-MEL-5 melanoma) | TGI (SN12C renal) | TGI (SNB-19 CNS) | TGI (T-47D breast) | TGI (TK-10 renal) | TGI (UACC-62 melanoma)
34.1 µM: TGI (SF-539 CNS)
inactive: GI50 (786-0 renal) 22.2 µM | GI50 (A498 renal) 7.76 µM | GI50 (A549 NSCLC) 31.6 µM | GI50 (ACHN renal) 17.9 µM | GI50 (BT-549 breast) 14.7 µM | GI50 (CAKI-1 renal) 13.3 µM | GI50 (COLO 205 colon) 37.5 µM | GI50 (DU-145 prostate) 24.6 µM | GI50 (HCC-2998 colon) 25.9 µM | GI50 (HCT-116 colon) 20.1 µM | GI50 (HCT-15 colon) > 100 µM | GI50 (HL-60(TB) leukemia) 1.61 µM | GI50 (HOP-62 NSCLC) 20.4 µM | GI50 (HOP-92 NSCLC) 16.2 µM | GI50 (HT29 colon) > 100 µM | GI50 (IGROV1 ovarian) 34.1 µM | GI50 (KM12 colon) > 100 µM | GI50 (LOX IMVI melanoma) > 100 µM | GI50 (M14 melanoma) 19.7 µM | GI50 (MALME-3M melanoma) 19.2 µM | GI50 (MCF7 breast) 12 µM | GI50 (MDA-MB-231 breast) 15.7 µM | GI50 (MDA-MB-435 melanoma) > 100 µM | GI50 (MDA-MB-468 breast) 13.9 µM | GI50 (NCI-H226 lung) 17.7 µM | GI50 (NCI-H23 lung) 26.8 µM | GI50 (NCI-H322M lung) 46.8 µM | GI50 (NCI-H460 NSCLC) 4.08 µM | GI50 (NCI-H522 lung) 8.01 µM | GI50 (NCI/ADR-RES ovarian) 56.3 µM | GI50 (OVCAR-3 ovarian) 20 µM | GI50 (OVCAR-4 ovarian) 18 µM | GI50 (OVCAR-5 ovarian) 37.7 µM | GI50 (OVCAR-8 ovarian) 21.5 µM | GI50 (PC-3 prostate) > 100 µM | GI50 (RPMI-8226 leukemia) 5.27 µM | GI50 (RXF 393 renal) 5.72 µM | GI50 (SF-268 CNS) 17 µM | GI50 (SF-295 CNS) 24.3 µM | GI50 (SF-539 CNS) 16.3 µM | GI50 (SK-MEL-2 melanoma) 16.9 µM | GI50 (SK-MEL-28 melanoma) 22.5 µM | GI50 (SK-MEL-5 melanoma) 25.3 µM | GI50 (SK-OV-3 ovarian) 19.3 µM | GI50 (SN12C renal) 70.1 µM | GI50 (SNB-19 CNS) 37.7 µM | GI50 (SR leukemia) 1.25 µM | GI50 (T-47D breast) 25.2 µM | GI50 (TK-10 renal) 38.4 µM | GI50 (U251 glioblastoma) 13.7 µM | GI50 (UACC-257 melanoma) 16.3 µM | GI50 (UACC-62 melanoma) 14.9 µM | GI50 (UO-31 renal) 25.6 µM
69.5 µM: TGI (UO-31 renal)
26.1 µM: TGI (NCI-H522 lung)
82 µM: TGI (NCI-H23 lung)
46.8 µM: TGI (SK-OV-3 ovarian)
40.8 µM: TGI (OVCAR-4 ovarian)
68 µM: TGI (SK-MEL-28 melanoma)
51.6 µM: TGI (A498 renal)
69.7 µM: TGI (MALME-3M melanoma)
72.9 µM: TGI (U251 glioblastoma)
60 µM: TGI (SF-295 CNS)
58.5 µM: TGI (SK-MEL-2 melanoma)
